In US6849645B2, “Method of increased bioavailability of nutrients and pharmaceutical preparations with tetrahydropiperine and its analogues and derivatives” (priority 2000, dated 2005):
“Also recorded” adds a separate entry of the source.

Legend:
[1] = 48 hour skin patch test for irritation in humans; format: in vivo, human
Protocol: In another aspect of the present invention, a study was conducted to determine whether a topical composition containing THP (98% purity), at a level of 0.01% and 0.1% by weight, which is preferred topical dose range for the compound, would produce symptoms of topical irritation. A skin patch test using THP in a petrolatum vehicle was conducted on 50 healthy volunteers for 48 hr with reading of the results after 48 hr and 72 hr. […] The irritation score was reported by the supervising physician, a practicing dermatologist, as 0. […] Based on previous experience with the parent compound, THP should not irritate the stomach mucosa at dose level of up to 50 mg per os in an adult healthy volunteer.
The 48 hour Repeat Insult Patch Test was used to evaluate skin irritation potential of the test compound.
50 Male or female subjects aged between 18 and 87 years participated in the study. 5 male and 41 female subjects completed the study. The subjects were in good health and using no medications from 30 days prior to the commencement of the study.
The test material was applied occlusively, 0.1% w/w diluted in petrolatum. 0.2 g or 0.2 cc of the test material was dispensed into the skin of the upper back. Paper tape such as 3M Micropore™ or Kendall Tenderskin™ was used for fixation after preparation of the surrounding skin with an adhesion enhancer such as Mastitol™. The subject was instructed to avoid exposure to water or to direct sunlight during the 48 hour observation period. The tape was removed at the test facility at the end of the exposure period and evaluated by trained personnel under the supervision of the principal investigator.
Reactions were scored based on the appearance of erythema or edema immediately following removal of the patch and again at 24 hours following removal. Subjects were instructed to report any delayed reactions occurring after the final reading.

[2] = test system: Earthworms; experiment: Albendazole induced anthelmintic activity on earthworms (paralysis and death); format: in vivo, earthworm
Protocol: An experiment to see how tetrahydropiperine enhances the skin permeability of anthelmintic drugs such as albendazole on intestinal worms was conducted. However, as a preliminary study towards this, tests on earthworms were conducted.
Earthworms were obtained from the Al Ameen College of Pharmacy, Bangalore. Albendazole (Zentel) was obtained from Smith Kline Beecham Pharmaceuticals, Bangalore. The aqueous test solution contained tetrahydropiperine (Tetraperine™, A proprietary product of Sabinsa Corporation, USA) of 0.1% and 0.2% w/v suspended in 0.25% w/v sodium carboxy methyl cellulose.
1. Effect of Albendazole: Earth worms of similar length and weight were divided into three groups of six worms each. […] The time of onset of paralysis was noted and the death of the worms were observed and recorded as above.

[3] = Franz diffusion cell, in vitro transdermal permeation of Forskolin with or without tetrahydropiperine; format: in vitro ADME, rat; details: for Increase in release (% of Forskolin): with THP vs control
Protocol: In vitro permeation studies of Forskholin, a diterpenoid compound which has various therapeutic effects (Bronchodilation—used in Asthma, prevents platelet aggregation, anti hypertensive, anti glaucoma and anti-inflammatory) was carried out. Fabricated Franz diffusion cells of capacity 67 and 69 ml were used for the study. Freshly excised rat abdominal skin was used for the permeation studies.
Solutions Used in the Study • a) 2.5% Forskolin in methanol. • b) 0.05% Tetrahydropiperine in 2.5% Forskolin in methanol. • c) 0.1% Tetrahydropiperine in 2.5% Forskolin in methanol. Procedure
Freshly excised rat abdominal […] was mounted on the Franz diffusion Cell, the outer layer of the skin facing the donor compartment. The receptor fluid was maintained at 35° C. using a thermostatic magnetic stirrer.
The study was conducted by replacing the medium in the receptor compartment with methanol instead of phosphate buffer. In both the receptor and donor compartment methanol was used as the medium in the permeation studies.
(§1) In the donor compartment 2 ml methanol containing 50 mg of Forskolin and tetrahydropiperine (5% of Forskolin conc.) was taken. Receptor compartment consisted of 69 ml of methanol maintained at 35° C. Permeation study was carried out for a period of 1 hr. Samples were withdrawn at 15, 30 and 60 minutes intervals and the amount of Forskholin present was analyzed by HPLC.
as §1, with “Forskholin” for “Forskolin and tetrahydropiperine (5% of Forskolin conc.)”, “65” for “69”, “hour.” for “hr.”

[4] = In vitro DPPH radical scavenging method (THC with or without THP); format: biochemical
Protocol: The bioenhancing potential of THP on the free-radical scavenging properties of topically applied THC was evaluated. In this in vitro DPPH radical scavenging method, the ability of an anti-oxidant to bind and inactivate the 1,1 diphenyl-2-picrylhydrazyl radical, or DPPH, was measured. DPPH is considered an example of a very stable free radical. The control sample contained 0.01% of THC while active samples contained 0.01% of THC with THP concentrations ranging from 0.1%-0.0001%. Additionally, controls containing various concentrations of THP alone were also tested for DPPH binding.

[5] = THP 0.01% and 0.1% by weight in petrolatum, 48 hr patch, read after 48 hr and 72 hr
[6] = Albendazole 0.2% + THP 0.1% vs Albendazole 0.2%
[7] = Albendazole 0.2% + THP 0.1% w/v
[8] = Albendazole 0.2% + THP 0.2% vs Albendazole 0.2%
[9] = Albendazole 0.2% + THP 0.2% w/v

O=C(CCCCc1ccc2c(c1)OCO2)N1CCCCC1 [Tetrahydropiperine, 1-[5-(1,3-Benzodioxol-5 yl)-1-oxo-pentanoyl]-Piperidine]
skin reaction (erythema, edema, primary contact irritation) ([1]; 0.1% w/w in petrolatum, occlusive, 48 hours exposure): No erythema or edema reactions; also recorded: appears not to produce primary (contact) irritation | irritation score [1, 5]: 0 | skin irritation [1, 5]: Neither dose caused skin irritation | % Reduction in time for Death [2, 6]: 11.03% | % Reduction in time for Paralysis [2, 6]: 12.81% | Time taken in minutes (Mean ± SEM), Death [2, 7]: 98.16 ± 5.19 min | Time taken in minutes (Mean ± SEM), Paralysis [2, 7]: 86.31 ± 4.3 min | % Reduction in time for Death [2, 8]: 32.32% | % Reduction in time for Paralysis [2, 8]: 37.36% | Time taken in minutes (Mean ± SEM), Death [2, 9]: 74.64 ± 2.98 min | Time taken in minutes (Mean ± SEM), Paralysis [2, 9]: 62.01 ± 3.33 min | change in time taken for paralysis and death ([2]; Albendazole 0.2% co-administered with tetrahydropiperine 0.2%): showed a reduction | % Reduction in time for Death ([2]; THP 0.1% alone): Nil | % Reduction in time for Paralysis ([2]; THP 0.1% alone): Nil | change in time of paralysis and death compared with standard concentration ([2]; Tetrahydropiperine 0.1% with albendazole 0.2%, unpaired t test): no change | permeation of Forskolin ([3]; Tetrahydropiperine 5% of Forskolin concentration): enhanced | permeation of Forskolin ([3]; tetrahydropiperine 2% of Forskolin concentration): enhanced permeation was not observed | Increase in release (% of Forskolin) ([3]; 15 min): 28.12% | Increase in release (% of Forskolin) ([3]; 30 min): 39.25% | Increase in release (% of Forskolin) ([3]; 60 min): 5.09% | enhancement of the antioxidant properties of THC as compared to THC alone ([4]; 0.01% THC with THP 0.1%-0.0001%): up to 30% | THC bioenhancing activity ([4]; 0.01% THC with THP at highest dilution of 0.0001%): still displayed some beneficial THC bioenhancing activity | anti-oxidant properties (DPPH binding) ([4]; THP alone, various concentrations): did not show any significant anti-oxidant properties
